pIC50: −log10 of the molar value.

In one assay the test system is K562 cells. The experiment in a line: K562 Cell-Based Assay. As to conditions: Homo sapiens, NBD-Ceramide, LCMS, read-out: Assay 2 (Cellular Assay; K562 cells) IC50. The protocol: This assay was modified based on the study by Gupta et al. (J. Lipid Res. 2010, 51, 866). K562 cells were seeded into 12-well plates at 3×10^5 cells/well/mL in RPMI-1640 medium with 5% FBS and incubated at 37° C. for 24 h. One μL of a compound described herein at desired concentration (10 mM, 1 mM, 0.1 mM, 0.01 mM, 0.001 mM and 0.0001 mM in DMSO) or DMSO was added into the corresponding well and mixed. Cells were incubated at 37° C. for 4 h. Then 100 μL of RPMI-1640 medium containing 110 μM of NBD-Ceramide, 11% BSA, 5% FBS, and corresponding concentration of a compound described herein was added into each well and mixed. Cells were incubated for additional 0.5 h at 37° C., followed by washing the cells with ice-cold PBS (pH 7.4) twice with centrifugation and resuspended with 50 μL cold PBS+1% Triton X-100. The cell lysate was sonicated for 15 min before adding equal volume of methanol for LCMS analysis. A small aliquot of cell lysate was used to determine protein concentration by BCA assay kit. The HPLC equipment and methods used in Assay 1 were used in this assay as well and IC50's were calculated.

Assay [1] addresses glucosylceramide synthase (GCS) (Canis lupus familiaris, UniProt A0A8I3MXG6). The experiment in a line: GCS Enzymatic Assay (MDCK lysates). The assay is classed as biochemical, canine. The following applies: MDCK cell lysate, C6-NBD-Ceramide, 37° C. for 1 hour, LC/MS; read-out: Assay 1 (Enzyme Assay; MDCK lysates) IC50. How it is done: Madin-Darby canine kidney (MDCK) cell lysate was prepared using M-PER Mammalian Protein Extraction Reagent (Thermal Scientific) in the presence of a protease inhibitor cocktail (Roche). Protein concentration was determined using BCA assay kit (Pierce). […] 0.1% DMSO was used as mock treatment or control. The reaction was terminated by adding 100 μL acetonitrile solution and subjected to LC/MS analysis.
The quantitative analysis of NBD-Ceramide and glucosylceramide was performed on a Shimadzu ultra-fast liquid chromatography (Shimadzu, Japan) coupled with API 4000 triple quadrupole mass spectrometer (Applied Biosystems, Concord, Ontario, Canada). Sample separation was conducted on a Waters Xbridge™ BEH130 C18, 100 mm×4.6 mm i.d, 3.5 μm (Milford, Mass., USA). The mobile phase consisted of water and acetonitrile supplemented with 0.1% formic acid (v/v). The flow rate was 1.0 mL/min. The initial mobile phase was 20% acetonitrile and was ramped in a linear fashion to 50% acetonitrile in 0.4 min. From 0.4 to 1.5 min, the gradient was ramped to 98% acetonitrile, and then was held at […] until 8.0 min. Acetonitrile was reset to 20% in 1.5 min, and maintained until 10.0 min. The total run time was 10.0 min. The MS/MS detection was performed in ESI positive mode. […] The cell lysate was diluted with equal volume of acetonitrile. Aliquots of 50 μL diluted samples were added to 1.5 mL tubes, and 100 μL of acetonitrile containing internal standard (100 ng/mL tolbutamide) were added for protein precipitation. The mixture were vortexed and then centrifuged at 13000 rpm for 10 min. 70 μL of supernatant were mixed with 140 μL of H2O and the final solution were injected for LC/MS/MS analysis and IC50's and/or percent inhibitions calculated.

Sequence of glucosylceramide synthase (GCS) (A0A8I3MXG6 1-394): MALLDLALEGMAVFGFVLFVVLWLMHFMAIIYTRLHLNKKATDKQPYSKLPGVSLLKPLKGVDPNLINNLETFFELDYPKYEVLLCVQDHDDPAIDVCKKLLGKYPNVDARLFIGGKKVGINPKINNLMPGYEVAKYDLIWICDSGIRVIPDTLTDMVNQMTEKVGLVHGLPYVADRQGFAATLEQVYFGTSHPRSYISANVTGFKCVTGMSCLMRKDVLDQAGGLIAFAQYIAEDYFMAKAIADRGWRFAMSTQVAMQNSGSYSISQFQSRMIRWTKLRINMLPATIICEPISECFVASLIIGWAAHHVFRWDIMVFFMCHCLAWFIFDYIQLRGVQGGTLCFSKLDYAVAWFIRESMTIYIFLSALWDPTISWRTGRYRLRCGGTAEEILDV

In the case of `O=C(N[C@H](CN1CCCC1)[C@H](O)c1ccc(OC2CC2)c(Cl)c1)C1=NOCc2cc(-c3ccc(F)cc3)ccc21` [Example 1, N-((1R,2R)-1-(3-chloro-4-cyclopropoxyphenyl)-1-hydroxy-3-(pyrrolidin-1-yl)propan-2-yl)-7-(4-fluorophenyl)-1H-benzo[d][1,2]oxazine-4-carboxamide], the results for the pIC50 (with K562 cells; in assay [1]) were no less than 8.00 and greater than 8.00, respectively.

For `O=C(N[C@H](CN1CCCC1)[C@H](O)c1ccc(OC2CC2)c(F)c1)C1=NOCc2cc(-c3ccc(F)cc3)ccc21` [Example 2, N-((1R,2R)-1-(4-cyclopropoxy-3-fluorophenyl)-1-hydroxy-3-(pyrrolidin-1-yl)propan-2-yl)-7-(4-fluorophenyl)-1H-benzo[d][1,2]oxazine-4-carboxamide], the pIC50 was no less than 8.00 with K562 cells and greater than 8.00 in assay [1].

For `O=C(N[C@H](CN1CCCC1)[C@H](O)c1cc(F)c2c(c1)OCCO2)C1=NOCc2cc(-c3ccc(F)cc3)ccc21` [Example 3, N-((1R,2R)-1-(8-fluoro-2,3-dihydrobenzo[b][1,4]dioxin-6-yl)-1-hydroxy-3-(pyrrolidin-1-yl)propan-2-yl)-7-(4-fluorophenyl)-1H-benzo[d][1,2]oxazine-4-carboxamide], the pIC50 in the assay on K562 cells was no less than 8.00; in assay [1] it was greater than 8.00.

With `O=C(N[C@H](CN1CCCC1)[C@H](O)c1ccc(OC2CC2)cc1)C1=NOCc2cc(-c3ccc(F)cc3)ccc21` [Example 4, N-((1R,2R)-1-(4-cyclopropoxyphenyl)-1-hydroxy-3-(pyrrolidin-1-yl)propan-2-yl)-7-(4-fluorophenyl)-1H-benzo[d][1,2]oxazine-4-carboxamide], the pIC50 was no less than 8.00 in the assay with K562 cells and 7.00 to 8.00 in assay [1].

For the compound `O=C(N[C@H](CN1CCC1)[C@H](O)c1ccc(OC2CC2)c(Cl)c1)C1=NOCc2cc(-c3ccc(F)cc3)ccc21` [Example 5, N-((1R,2R)-3-(azetidin-1-yl)-1-(3-chloro-4-cyclopropoxyphenyl)-1-hydroxypropan-2-yl)-7-(4-fluorophenyl)-1H-benzo[d][1,2]oxazine-4-carboxamide], the figures for the pIC50 (in the assay with K562 cells; in assay [1]) were no less than 8.00 and 7.00 to 8.00, respectively.

Regarding `O=C(N[C@H](CN1CCC1)[C@H](O)c1ccc(OC2CC2)cc1)C1=NOCc2cc(-c3ccc(F)cc3)ccc21` [Example 6, N-((1R,2R)-3-(azetidin-1-yl)-1-(4-cyclopropoxyphenyl)-1-hydroxypropan-2-yl)-7-(4-fluorophenyl)-1H-benzo[d][1,2]oxazine-4-carboxamide], the pIC50 in the assay with K562 cells is no less than 8.00; in assay [1], 7.00 to 8.00.

Consider `O=C(N[C@H](CN1CCC1)[C@H](O)c1ccc(OC2CC2)c(F)c1)C1=NOCc2cc(-c3ccc(F)cc3)ccc21` [Example 7, N-((1R,2R)-3-(azetidin-1-yl)-1-(4-cyclopropoxy-3-fluorophenyl)-1-hydroxypropan-2-yl)-7-(4-fluorophenyl)-1H-benzo[d][1,2]oxazine-4-carboxamide], for which the results for the pIC50 (in the assay on K562 cells; in assay [1]) were no less than 8.00 and greater than 8.00, respectively.

As to `O=C(N[C@H](CN1CCCC1)[C@H](O)c1ccc(OC2CC2)c(F)c1)C1=NOCc2cc(-c3ccc(Cl)s3)ccc21` [Example 8, 7-(5-chlorothiophen-2-yl)-N-((1R,2R)-1-(4-cyclopropoxy-3-fluorophenyl)-1-hydroxy-3-(pyrrolidin-1-yl)propan-2-yl)-1H-benzo[d][1,2]oxazine-4-carboxamide], the results for the pIC50 (in the assay with K562 cells; in assay [1]) were no less than 8.00 and greater than 8.00, respectively.

Turning to `O=C(N[C@H](CN1CCC1)[C@H](O)c1ccc(OC2CC2)c(F)c1)C1=NOCc2cc(-c3ccc(Cl)s3)ccc21` [Example 9, N-((1R,2R)-3-(azetidin-1-yl)-1-(4-cyclopropoxy-3-fluorophenyl)-1-hydroxypropan-2-yl)-7-(5-chlorothiophen-2-yl)-1H-benzo[d][1,2]oxazine-4-carboxamide], the pIC50 with K562 cells is no less than 8.00; in assay [1], greater than 8.00.

`O=C(N[C@H](CN1CCCC1)[C@H](O)c1ccc(OC2CC2)c(Cl)c1)C1=NOCc2cc(-c3ccc(Cl)s3)ccc21` [Example 10, N-((1R,2R)-1-(3-chloro-4-cyclopropoxyphenyl)-1-hydroxy-3-(pyrrolidin-1-yl)propan-2-yl)-7-(5-chlorothiophen-2-yl)-1H-benzo[d][1,2]oxazine-4-carboxamide]: the pIC50 in the assay with K562 cells is no less than 8.00; in assay [1], 7.00 to 8.00.

Take `O=C(N[C@H](CN1CCC1)[C@H](O)c1ccc(OC2CC2)cc1)C1=NOCc2cc(-c3ccc(Cl)s3)ccc21` [Example 11, N-((1R,2R)-3-(azetidin-1-yl)-1-(4-cyclopropoxyphenyl)-1-hydroxypropan-2-yl)-7-(5-chlorothiophen-2-yl)-1H-benzo[d][1,2]oxazine-4-carboxamide]: the pIC50 in the assay with K562 cells was no less than 8.00; in assay [1], 7.00 to 8.00.

Regarding `O=C(N[C@H](CN1CCCC1)[C@H](O)c1ccc(OC2CC2)c(F)c1)C1=NOCc2c1sc1cc(Cl)ccc21` [Example 12, 7-chloro-N-((1R,2R)-1-(4-cyclopropoxy-3-fluorophenyl)-1-hydroxy-3-(pyrrolidin-1-yl)propan-2-yl)-1H-benzo[4,5]thieno[2,3-d][1,2]oxazine-4-carboxamide], the pIC50 (in the assay on K562 cells; in assay [1]) was 7.00 to 8.00 in each case.

In the case of `O=C(N[C@H](CN1CCCC1)[C@H](O)c1ccc(OC2CC2)cc1)C1=NOCc2cc(-c3ccc(Cl)s3)ccc21` [Example 14, 7-(5-chlorothiophen-2-yl)-N-((1R,2R)-1-(4-cyclopropoxyphenyl)-1-hydroxy-3-(pyrrolidin-1-yl)propan-2-yl)-1H-benzo[d][1,2]oxazine-4-carboxamide], the pIC50 in the assay with K562 cells is no less than 8.00; in assay [1] it was greater than 8.00.

For `CN(C(=O)C1=NOCc2cc(-c3ccc(F)cc3)ccc21)[C@H](CN1CCCC1)[C@H](O)c1ccc(OC2CC2)c(F)c1` [Example 17, N-((1R,2R)-1-(4-cyclopropoxy-3-fluorophenyl)-1-hydroxy-3-(pyrrolidin-1-yl)propan-2-yl)-7-(4-fluorophenyl)-N-methyl-1H-benzo[d][1,2]oxazine-4-carboxamide], the pIC50 with K562 cells is no less than 8.00; in assay [1], greater than 8.00.

For the compound `CN(C(=O)C1=NOCc2cc(-c3ccc(Cl)s3)ccc21)[C@H](CN1CCCC1)[C@H](O)c1ccc(OC2CC2)c(F)c1` [Example 18, 7-(5-chlorothiophen-2-yl)-N-((1R,2R)-1-(4-cyclopropoxy-3-fluorophenyl)-1-hydroxy-3-(pyrrolidin-1-yl)propan-2-yl)-N-methyl-1H-benzo[d][1,2]oxazine-4-carboxamide], the pIC50 with K562 cells was no less than 8.00; in assay [1], 7.00 to 8.00.

With `CN(C(=O)C1=NOCc2cc(-c3ccc(F)cc3)ccc21)[C@H](CN1CCCC1)[C@H](O)c1ccc(OC2CC2)c(Cl)c1` [Example 19, N-((1R,2R)-1-(3-chloro-4-cyclopropoxyphenyl)-1-hydroxy-3-(pyrrolidin-1-yl)propan-2-yl)-7-(4-fluorophenyl)-N-methyl-1H-benzo[d][1,2]oxazine-4-carboxamide], the pIC50 with K562 cells was no less than 8.00; in assay [1] it was 7.00 to 8.00.

As for `O=C(N[C@H](CN1CCCC1)[C@H](O)c1ccc(OC2CC2)c(Cl)c1)C1=NOCc2cc3ccccc3cc21` [Example 20, N-((1R,2R)-1-(3-chloro-4-cyclopropoxyphenyl)-1-hydroxy-3-(pyrrolidin-1-yl)propan-2-yl)-1H-naphtho[2,3-d][1,2]oxazine-4-carboxamide], the values for the pIC50 (in the assay with K562 cells; in assay [1]) were no less than 8.00 and greater than 8.00, respectively.

Consider `CN(C(=O)C1=NOCc2cc(-c3ccc(F)cc3)ccc21)[C@H](CN1CCC1)[C@H](O)c1ccc(OC2CC2)c(Cl)c1` [Example 21, N-((1R,2R)-3-(azetidin-1-yl)-1-(3-chloro-4-cyclopropoxyphenyl)-1-hydroxypropan-2-yl)-7-(4-fluorophenyl)-N-methyl-1H-benzo[d][1,2]oxazine-4-carboxamide], for which the pIC50 in the assay on K562 cells is no less than 8.00; in assay [1], 7.00 to 8.00.

The values are drawn from patent US10227312B2, “Glucosylceramide synthase inhibitors for the treatment of diseases” (BIOMARIN PHARMACEUTICAL INC., priority 2015, dated 2019).
